Results taken from PubChem BioAssay (NCI).
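Interpolation was linear, between the two tested concentrations surrounding the appropriate level; five concentrations were tested over 48 hours in 96-well plates. TGI: concentration producing complete growth inhibition.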

How the values were obtained:
Experiment in all cases: inhibition of tumour cell growth, NCI panel, 48 h
HCC-2998 colon = test system: HCC-2998 colon
UACC-257 melanoma = test system: UACC-257 melanoma
UACC-62 melanoma = test system: UACC-62 melanoma
MOLT-4 leukemia = test system: MOLT-4 leukemia
UO-31 renal = test system: UO-31 renal
HCT-15 colon = test system: HCT-15 colon
DU-145 prostate = test system: DU-145 prostate
RXF 393 renal = test system: RXF 393 renal
KM12 colon = test system: KM12 colon

SMILES | TGI (HCC-2998 colon) [µM] | TGI (UACC-257 melanoma) [µM] | TGI (UACC-62 melanoma) [µM] | TGI (MOLT-4 leukemia) [µM] | TGI (UO-31 renal) [µM] | TGI (HCT-15 colon) [µM] | TGI (DU-145 prostate) [µM] | TGI (RXF 393 renal) [µM] | TGI (KM12 colon) [µM]
CCCCn1cc(C(=O)O)c(=O)c2c3sccc3ccc21 | > 100 | > 100 | > 100 | > 100 | 50 | > 100 | > 100 | > 100 | > 100
Cn1c(N)c(/C=N/NC(=O)CC#N)c(=O)n(C)c1=O | > 100 | > 100 | > 100 | > 100 | > 100 | > 100 | > 100 | > 100 | > 100
O=C1c2ccccc2S(=O)(=O)c2ccccc21 | > 100 | > 100 | > 100 | > 100 | > 100 | > 100 | > 100 | > 100 | > 100
Cc1ncc([N+](=O)[O-])n1CCN=[N+]=[N-] |  | > 100 | > 100 |  | > 100 | > 100 | > 100 | > 100 | > 100
Cc1cccc(NC(=O)CC(=O)N2N=C(N3c4ccccc4Sc4ccccc43)CC2c2ccccc2)c1 (stereo not drawn) | > 100 | > 100 | > 100 | > 100 | > 100 | > 100 | > 100 | > 100 | > 100
C=C(CCOC)CCC1CCCCC(=C)C1=O (stereo not drawn) | > 100 |  | > 100 | > 100 | > 100 | > 100 | > 100 | > 100 | > 100
Cc1ccc(Nc2nc(=O)[nH]c(=O)[nH]2)cc1N | > 100 | > 100 | > 100 |  |  | > 100 | > 100 |  | > 100
COc1cc(C(=O)Nc2nnc(S(N)(=O)=O)s2)cc(OC)c1OC | > 100 | > 100 | > 100 | > 100 | > 100 | > 100 | > 100 | > 100 | > 100
O=c1c(Cc2ccc(Cl)cc2)nnc2sc(-c3ccc([N+](=O)[O-])cc3)nn12 | 42.6 | 39.5 | 34 | > 100 | > 100 | 29.3 | > 100 | 74.1 | > 100
CN(C)c1ccc(/C=C(\NC(=O)c2ccccc2)C(=O)Nc2ccccc2C(=O)NN2C(=O)CSC2c2ccc(N(C)C)cc2)cc1 (stereo not drawn) | 21.4 | 32.2 | > 100 | > 100 | > 100 | > 100 | > 100 | > 100 | > 100
CCCCC[C@H](O)[C@H](C)C=C1SCCCS1 | > 100 | > 100 | > 100 | > 100 | > 100 | > 100 | > 100 | > 100 | > 100
